{"source": "paper PMC5974403", "about": "“The novel histone de acetylase 6 inhibitor, MPT0G211, ameliorates tau phosphorylation and cognitive deficits in an Alzheimer’s disease model” (Cell Death & Disease, 2018)", "key": {"Neuro-2a cells": {"test_system": "Neuro-2a cells", "assay": "Western blot of acetyl-α-tubulin and acetyl-histone, Neuro-2a cells", "format": "cell-based, mouse", "conditions": "0.1 to 1 μM, 24 h", "method": "Cell viabilities were determined by MTT assay. The results represent the mean ± SEM of three independent experiments; *p < 0.05, **p < 0.01 and ***p < 0.001 compared with controls TEXT PRINTED IN THE PICTURE: (A) no label printed: M.W. 293.32\nCells (1 × 10^6) were incubated for 10 min at 4 °C in lysis buffer (20 mM HEPES, pH 7.4, 2 mM EGTA, 50 mM β-glycerophosphate, 0.1% Triton X-100, 10% glycerol, 1 mM dithiothreitol, 1 μg/mL leupeptin, 5 μg/mL aprotinin, 1 mM phenylmethylsulfonyl fluoride, and 1 mM sodium orthovanadate), scraped from the plate, incubated on ice for 10 min, and centrifuged at 17,000 × g for 30 min at 4 °C. Protein samples (30 μg) were electrophoresed through sodium dodecyl sulfate-polyacrylamide gels (SDS-PAGE) and transferred onto a nitrocellulose membrane, which was then blocked by incubation for 30 min at room temperature with 5% fat-free milk in PBS. Immunoblotting was performed by overnight incubation at 4 °C with primary antibodies in PBS, followed by incubation for 1 h at room temperature with HRP-conjugated secondary antibodies. Bound antibodies were measured using ECL reagent (T-Pro Biotechnology, New Taipei City, Taiwan), and the membrane was placed on a photographic film. Cell lysates (30 μg) were incubated with antibodies (1 μg each) and protein A/G agarose beads overnight at 4 °C. The precipitated beads were washed three times with 1 mL of ice-cold cell lysis buffer, and bound immune complexes were separated using 8% SDS-PAGE, followed by immunoblotting using the indicated primary antibody."}, "3×Tg-AD mice": {"test_system": "3×Tg-AD mice", "assay": "Morris water maze in 3×Tg-AD mice", "format": "in vivo, mouse", "conditions": "50 mg/kg oral daily for 3 months", "method": "Red arrowheads indicate phosphorylated-tau proteins. Scale bar = 25 μm. Data represent the mean ± SEM. *p < 0.05, **p < 0.01, and ***p < 0.001 compared with the basal or control group; ^#p < 0.05, ^##p < 0.01, and ^###p < 0.001 compared with the vehicle-treated group\nSix-month-old female B6;129-Psen1^tm1Mpm Tg(APPSwe,tauP301L)1Lfa/Mmjax (3xTg-AD) mice and control B6129SF2/J mice were obtained from the Jackson Laboratory (Bar Harbor, ME, USA), orally administered MPT0G211 (50 mg/kg) or memantine (30 mg/kg, dissolved in water) once daily for 3 months, and then subjected to Morris water maze. The assay that using 3xTg-AD mice was entrusted to carry out by Development Center for Biotechnology (New Taipei City, Taiwan).\nThe water maze was constructed as a white circular pool filled with water, and the water temperature was maintained at 23–27 °C. A white platform was established and submerged 5 cm below the surface of the water and styrofoam beads were added to make the platform invisible. Animals were trained by permitting them to stay for 10 s upon reaching the platform. […] Training was performed twice daily and 4 days during 1 week. Test trials were repeated twice with a 20 min interval for each animal. Scopolamine (1 mg/kg) was injected intraperitoneally 90 min before the test trial to induce AD-like features, except for the control group."}, "[1]": {"assay": "BBB crossing assay: brain and plasma concentrations by LC-MS/MS after oral administration", "format": "in vivo, rat", "conditions": "rats", "method": "Successful crossing of the BBB by therapeutic drugs is essential in the treatment of CNS disorders. To explore whether MPT0G211 can penetrate into the brain, single oral administration of MPT0G211 was performed, and plasma and brain samples were collected and analyzed by liquid chromatography tandem mass spectrometry (LC-MS/MS) to obtain brain/plasma ratios.\nThis assay was performed by Eurofins Scientific. Briefly, SD rats weighing 200–300 g were provided by BioLasco Taiwan (under the license of Charles River Laboratories). Rats were sedated under general inhalant anesthesia (3% isoflurane) for blood collection using cardiac puncture 60 and 180 min after oral administration of the test compound. Aliquots of blood were gently mixed with lithium heparin, kept on ice, and centrifuged at 2500 × g for 15 min at 4 °C. The plasma was then harvested and stored at −70 °C. After blood sampling, rats were decapitated, and the entire brain was quickly removed and rinsed with cold saline (0.9% NaCl, w/v). The surface vasculature was ruptured, blotted with dry gauze, weighed, and stored on ice within 1 h of collection. Each brain was homogenized in 3 mL cold PBS, pH 7.4, for 10 s on ice, and centrifuged at 5400 × g for 15 min at 4 °C. Supernatants were precipitated using acetonitrile precipitation and subjected to high-performance LC-MS/MS."}, "Elevated plus maze": {"assay": "Elevated plus maze", "parameters": "species or system rat", "conditions": "AD in vivo models; stated in introduction only", "method": "The plus maze consisted of two open and two closed arms, connected by a central platform. Animals were individually placed at the end of either of the open arms facing away from the central platform. The time for each rat to move from the open arm to either of the closed arms was recorded. […] These experiments were performed in accordance with relevant ethics guidelines and regulations, which were reviewed and approved by the Animal Use and Management Committee of the College of Medicine, National Taiwan University (IACUC number: 20130361)."}}, "note": "Read-outs that look alike come from different tables or passages of the source.", "data": [{"smiles": "O=C(NO)c1ccc(CNc2cccc3cccnc23)cc1", "note": "[MPT0G211, N-hydroxy-4-((quinolin-8-ylamino)methyl)benzamide]", "values": [{"measurement": "acetylation of histones", "setting": "Neuro-2a cells", "value": "without affecting the acetylation of histones"}, {"measurement": "acetylation of α-tubulin", "setting": "Neuro-2a cells", "value": "concentration-dependently increased"}, {"measurement": "memory impairment (Morris water maze escape latency)", "setting": "3×Tg-AD mice", "value": "significantly ameliorated"}, {"measurement": "Kp at 3 h", "setting": "[1]; SD, rat, brain/plasma, PO 50 mg/kg, 3 h, read-out: Brain/plasma ratio", "value": 0.9}, {"measurement": "concentration at 1 h", "setting": "[1]; SD, rat, brain, PO 50 mg/kg, 1 h, read-out: Brain concentration", "value": "56.9 ± 3.4", "unit": "ng/g"}, {"measurement": "concentration at 3 h", "setting": "[1]; SD, rat, brain, PO 50 mg/kg, 3 h, read-out: Brain concentration", "value": "11 ± 0.1", "unit": "ng/g"}, {"measurement": "Kp at 1 h", "setting": "[1]; SD, rat, in vivo, PO 50 mg/kg, 1 h, read-out: Brain/plasma ratio", "value": 1.01}, {"measurement": "concentration at 1 h", "setting": "[1]; SD, rat, plasma, PO 50 mg/kg, 1 h, read-out: Plasma concentration", "value": "56.4 ± 4", "unit": "ng/g"}, {"measurement": "concentration at 3 h", "setting": "[1]; SD, rat, plasma, PO 50 mg/kg, 3 h, read-out: Plasma concentration", "value": "12.2 ± 1.4", "unit": "ng/g"}, {"measurement": "BBB penetration", "setting": "[1]; single oral administration", "value": "can penetrate the BBB"}, {"measurement": "time for which concentrations were detected in the brain", "setting": "[1]; single oral administration", "value": "at least 3 h"}, {"measurement": "time spent in finding the closed arm (elevated plus maze) and platform (Morris water maze)", "setting": "Elevated plus maze", "value": "reduced the time spent by animals in finding the platform and closed arm"}]}]}
